Data reported in ChEMBL document CHEMBL1158020, “Antitumor agents. 190. Absolute stereochemistry of the cytotoxic germacranolides, tomenphantins A and B, from Elephantopus tomentosus” (1999).
In brackets after ≈: the same amount, converted by molar mass.

Tested on: KB
Assay: Cytotoxicity against human KB cells
Type: functional
Conditions: read-out: ED50 (the source's name)

| Structure (SMILES) | EC50 [µg/mL] |
| --- | --- |
| C=C(C)C(=O)O[C@H]1C/C(C=O)=C/CC[C@@]2(C)O[C@H]2[C@H]2OC(=O)C(=C)[C@@H]21 [TOMENPHANTIN B] | 2.7 (≈ 7.79 µM) |
| C=C(C)C(=O)O[C@H]1C/C(CO)=C/CC[C@@]2(C)O[C@H]2[C@H]2OC(=O)C(=C)[C@@H]21 [TOMENPHANTIN A] | 3 (≈ 8.61 µM) |
